In patent publication US20220168331A1, “PRR-Activating and MicroRNA-Inhibiting Molecules and Methods of Using Same” (Duke University, priority 2019, published 2022):
“Also recorded” adds a separate entry of the source. {PPP} = triphosphate

Experiments:
[1] = system: B16-F10 mouse melanoma cells; assay: IFN-β production (ELISA) by B16-F10 cells; assay type: cell-based; details: for IFN-β production compared to ICR2 and ICR2AS conjugated with seed mutant anti-miR-21: FIG. 6B, n=3
Protocol: (§1) B16-F0 and B16-F10 mouse melanoma cells lines are originated from the same parental cell line but they have different metastatic ability. B16-F0 cell line has no or marginal metastatic ability but B16-F10 cell line has potent metastatic ability. B16-F0 and B16-F10 cells (1×10^4) were treated with RIG-I agonist ICR4-liposome complex (0.6 μg/ml). After overnight incubation, cytotoxicity and IFN-β production by the cells were measured using MTT assay and ELISA, respectively. […] Tumor suppressor proteins, such as programmed cell death 4 (PDCD4) and phosphatase and tensin homolog (PTEN), and pre-miR-21 levels in B16-F0 and B16-F10 cells were measured using real-time qPCR. […] It was hypothisized that miR-21 would interfere with antitumor effects of RIG-I agonists in B16-F10 melanoma cells.
To improve therapeutic effects of RIG-I agonists in B16-F10 cells, we designed and generated a novel RIG-I-activating RNA molecule (named RigantmiR-21) that is composed of a RIG-I-activating RNA structure (ICR4: 5′ppp-containg double stem-loop RNA) and a complementary sequence to mature miR-21. B16-F10 melanoma cells were transfected once or twice with RigantmiR-21, mutant RigantmiR-21, anti-miR-21, or ICR4 (0.6 μg/ml) using liposomal transfection agent DharmaFECT (DF). The expression of miR-21 target genes was determined using qPCR. IFN-β production was determined using ELISA. […] Anti-miR-21, ICR4, and RigantmiR-21 RNAs were complexed with in vivo transfection agent jet-PEI. Jet-PEI alone or RNA-jet-PEI complexes (25 μg) were injected thrice intratumorally into B16-F10 melanoma-bearing immunocompetent mice. (n=6).
Additionally, conjugation of anti-miR-21 improved the ability of other types of RIG-I agonists, such as ICR2 and ICR2AS^4 (sequences shown in FIG. 6A) to induce IFN-β production by cancer cells.

[2] = system: Human and murine cancer cell lines and human normal cells; assay: Cytotoxicity (MTT assay) in cancer cell lines and normal cells; assay type: cell-based; details: transfected 0.8 mg/ml, 72 h after treatment, FIG. 2
Protocol: Human and murine cancer cell lines and human normal cells in 96-well plate (7000 cells/well) were transfected with RIG-I agonist 5′ppp ssRNA ICR4 ([…]). Cells were harvested 72 h after treatment and analyzed for cytotoxicity using MTT assay. N=3. *, P<0.05.

[3] = system: B16-F0 mouse melanoma cells; assay: Cytotoxicity (MTT assay) in B16-F0 cells; assay type: cell-based; details: for cytotoxic effects after repeated treatments: two transfections at various concentrations, DharmaFECT, MTT three days after first transfection
Protocol: as §1
B16-F0 mouse melanoma cells were transfected with ICR4, RigantmiR-21, mutant RigantmiR-21, or anti-miR-21 at various concentrations using DharmaFECT (DF). After overnight incubation, the cells were replenished with fresh culture media, followed by another transfection with the same dose of RNAs. Three days after the first transfection, cytotoxicity levels were measured using MTT assay.

[4] = system: B16-F10 mouse melanoma cells; assay: Cytotoxicity (MTT assay) in B16-F10 cells; assay type: cell-based; details: ICR4-liposome complex 0.6 μg/ml, overnight incubation
Protocol: as §1

[5] = system: mouse pancreatic, adenocarcinoma, and sarcoma cells; assay: Antitumor activities in mouse pancreatic cancer and sarcoma cells (overall statements); assay type: cell-based; details: FIGS. 4A-4C
Protocol: The antitumor effects of RigantmiR-21 are not limited to melanoma cells. KPC-4839 (mouse pancreatic ductal adenocarcinoma), PANC-02 (mouse pancreatic adenocarcinoma) and mouse sarcoma cell line cells were transfected with indicated ICR4, RigantmiR-21, mutant RigantmiR-21, or anti-miR-21 (0.6 μg/ml) using DharmaFECT (DF). After overnight incubation, IFN-β production by these cells was determined using ELSIA. (n=3). As shown in FIGS. 4A-4C, RigantmiR-21 treatments induced cell death and IFN-β production by mouse pancreatic, adenocarcinoma, and sarcoma cells that are also resistant to RIG-I agonist ICR4.

Mouse BM-DCs = assay: PRR tolerance: IFN-β production by pretreated BM-DCs after secondary treatment; assay type: cell-based; details: pretreatment overnight, then cytoplasmic PRR agonists; FIG. 9A
Protocol: (§2) In addition to prior activation of MDA5, prior activation of TLR4, RIG-I, and STING induced self- and cross-tolerance of same and different PRRs.
(§3) Mouse BM-DCs were treated with pIC/DF complex (cytoplasmic MDA5), ICR4/DF complex (cytoplasmic RIG-I), 2′3′-cGAMP (cytoplasmic STING), or transfection agent DF alone (FIG. 9A). Mouse macrophage cells were treated with dH2O (control), LPS (surface TLR4), or HMGB1 (surface TLR4), followed by treatment with DMSO (control) or mixture of CH223191 (AHR inhibitor) and 1-MT (IDO inhibitor) (FIG. 9B). After overnight incubation, the cells were replenished with fresh culture media and treated with indicated cytoplasmic PRR agonists. Levels of IFN-β production were measured using ELISA. □ P<0.05.

[6] = system: B16-F0 mouse melanoma cells; assay: IFN-β production (ELISA) by B16-F0 cells; assay type: cell-based; details: for IFN-β production after first and second transfection: 12.5 nM, DharmaFECT, one day after first and second transfection
Protocol: as §1
B16-F0 mouse melanoma cells were transfected with ICR4, RigantmiR-21, mutant RigantmiR-21, or anti-miR-21 at 12.5 nM using DharmaFECT (DF). After overnight incubation, the cells were replenished with fresh culture media, followed by another transfection with the same dose of RNAs. One day after the first and second transfection, IFN-β production by these cells were determined using ELSIA.
(§4) B16-F0 mouse melanoma cells or bone marrow-derived dendritic cells (BM-DCs) were transfected once (x1) or twice (x2) with a complex of polyI:C (pIC) (0.6 μg/ml) and transfection agent jet-PEI. IFN-β production by the cells one day after each transfection was determined using ELISA.

[7] = system: PANC-02 mouse pancreatic cancer cell line; assay: PRR tolerance: IFN-β production by pretreated PANC-02 cells after secondary treatment; assay type: cell-based; details: FIG. 8; for IFN-β production after secondary treatment, cells pretreated with the substance versus control: pretreatment at sublethal dose overnight, then pIC/DF complex 0.6 μg/ml; for IFN-β production, cells pre-treated with mixture of 1-MT and CH223191 versus DMSO: substance given as mixture of IDO inhibitor and AHR inhibitor
Protocol: as §2
(§5) In particular, mouse pancreatic cancer cell line PANC-02 and melanoma cell line B16-F10 were pretreated with dH2O, MDA5 agonist (pIC/DF complex), or TLR4 agonist (HMGB1) in the presence of dimethyl sulfoxide (DMSO) (vehicle control), CH223191 (AHR inhibitor), 1-MT (IDO inhibitor), or L-Kyn (AHR activator). After overnight incubation, the cells were replenished with fresh culture media and treated with pIC/DF complex (0.6 μg/ml). One day after second treatment, IFN-β production was measured using ELISA. (n=3).

[8] = system: B16-F10 melanoma cell line; assay: PRR tolerance: IFN-β production by pretreated B16-F10 cells after secondary treatment; assay type: cell-based, mouse; details: FIG. 8; for IFN-β production after secondary treatment, cells pretreated with the substance versus control: pretreatment at sublethal dose overnight, then pIC/DF complex 0.6 μg/ml; for IFN-β production, cells pre-treated with mixture of 1-MT and CH223191 versus DMSO: substance given as mixture of IDO inhibitor and AHR inhibitor
Protocol: as §2, §5

Mouse macrophage cells = assay: PRR tolerance: IFN-β production by pretreated macrophages after secondary treatment; assay type: cell-based; details: for IFN-β production, cells pre-treated with mixture of 1-MT and CH223191 versus DMSO: substance given as mixture of IDO inhibitor and AHR inhibitor, FIG. 9; for IFN-β production after secondary treatment, cells pretreated with the substance versus control: pretreatment overnight, then cytoplasmic PRR agonists, FIG. 9B
Protocol: as §2, §3

[9] = system: bone marrow-derived dendritic cells (BM-DCs); assay: IFN-β production (ELISA) by BM-DCs after single or repeated pIC/jet-PEI transfection; assay type: cell-based, mouse; details: pIC 0.6 μg/ml with jet-PEI, transfected once or twice, one day after each transfection
Protocol: as §4

[10] = system: B16-F10 melanoma-bearing mice; assay: Anticancer response (survival) after single or multiple intratumoral pIC/jet-PEI injections; assay type: in vivo, mouse; details: pIC/jet-PEI complex 25 μg intratumorally once or thrice
[11] = system: 4T1 mouse breast cancer cells, B16-F10 mouse melanoma cells, 403688 mouse sarcoma cells, and WM266.4 human melanoma cells; assay: IFN-β production (ELISA) by different cancer cells after first and second transfection with RIG-I agonists; assay type: cell-based; details: DharmaFECT, one day after first and second transfection; FIG. 11
Protocol: 4T1 mouse breast cancer cells, B16-F10 mouse melanoma cells, 403688 mouse sarcoma cells, and WM266.4 human melanoma cells were transfected with indicated RIG-I agonists using liposomal transfection agent DharmaFECT (DF). After overnight incubation, the cells was replenished with fresh culture media, followed by another transfection with the same RIG-I agonists. One day after first and second transfection IFN-β production by these cells were determined using ELSIA.

[12] = ICR4-liposome complex 0.6 μg/ml, overnight incubation, ELISA

Molecule: ICR2-anti-miR-21: RIG-I agonist ICR2 conjugated with anti-miR-21; SEQ ID NO: 7 (GGAUGCGGUACCUGACAGCAUCCUCAACAUCAGUCUGAUAAGCUA; listed as RNA, further chemistry not given here)
- IFN-β production compared to ICR2 and ICR2AS conjugated with seed mutant anti-miR-21 [1]: increased induction

Molecule: ICR4: immunogenic cell-killing RNA RIG-I agonist, 5′ppp-containing double stem-loop ssRNA; SEQ ID NO: 1 (GGAUGCGGUACCUGACAGCAUCCUAAACUCAUGGUCCAUGUUUGUCCAUGGACCA; RNA, 5' {PPP}, backbone not given here; double stem-loop single-stranded RNA) [reference compound]
- % cytotoxicity, cancer versus normal cells [2]: differentially sensitive; also recorded: Differential sensitivity
- IFN-β production [1, 12]: underwent cell death and IFN-β production
- sensitivity to antitumor effects, B16-F0 cell line compared with B16-F10 cell line ([3]; 0.6 μg/ml, overnight, FIGS. 1A and 1B): much more sensitive
- cytotoxicity (cell death) ([3]; ICR4-liposome complex 0.6 μg/ml, overnight incubation, MTT assay): underwent cell death and IFN-β production
- cytotoxic effects after repeated treatments [3]: gradually augmented
- cytotoxicity (cell death) [4]: underwent cell death and IFN-β production
- response of the cells to the RIG-I agonist (resistance) [5]: resistant
- IFN-β production after secondary treatment, cells pretreated with the substance versus control (Mouse BM-DCs): significantly decreased
- IFN-β production after first and second transfection ([6]; ELISA): significantly reduced and not
- IFN-β production [6, 12]: underwent cell death and IFN-β production

Molecule: Nc1ccccc1C(=O)CC(N)C(=O)O (stereo not shown) [Kyn, kynurenine]
- IFN-β production after secondary treatment, cells pretreated with the substance versus control [7]: significantly decreased
- IFN-β production after secondary treatment, cells pretreated with the substance versus control [8]: significantly decreased

Molecule: Cn1cc(C[C@H](N)C(=O)O)c2ccccc21 [1-MT, 1-methyl tryptophan]
- IFN-β production, cells pre-treated with mixture of 1-MT and CH223191 versus DMSO (Mouse macrophage cells): significantly increased
- IFN-β production, cells pre-treated with mixture of 1-MT and CH223191 versus DMSO [7]: significantly increased
- IFN-β production, cells pre-treated with mixture of 1-MT and CH223191 versus DMSO [8]: significantly increased

Molecule: polyinosinic-polycytidylic acid [polyI:C]
- IFN-β production after retreatment [9]: reduced
- IFN-β production after secondary treatment, cells pretreated with the substance versus control [7]: significantly decreased
- anticancer responses (survival), multiple treatments compared to single treatment [10]: did not significantly enhance
- IFN-β production after secondary treatment, cells pretreated with the substance versus control [8]: significantly decreased
- IFN-β production after secondary treatment, cells pretreated with the substance versus control (Mouse BM-DCs): significantly decreased
- IFN-β production after retreatment ([6]; pIC 0.6 μg/ml with jet-PEI, transfected once or twice, one day after each transfection): reduced

Molecule: lipopolysaccharide [LPS]
- IFN-β production after secondary treatment, cells pretreated with the substance versus control (Mouse macrophage cells): significantly decreased

Molecule: Nc1nc2c(ncn2[C@@H]2O[C@@H]3COP(=O)(O)O[C@H]4[C@@H](O)[C@H](n5cnc6c(N)ncnc65)O[C@@H]4COP(=O)(O)O[C@@H]2[C@@H]3O)c(=O)[nH]1 [2′3′-cGAMP]
- IFN-β production after secondary treatment, cells pretreated with the substance versus control (Mouse BM-DCs): significantly decreased

Molecule: ICR2AS-anti-miR-21: RIG-I agonist ICR2AS conjugated with anti-miR-21; SEQ ID NO: 9 (GGAUGCUGUCAGGUACCGCAUCCUCAACAUCAGUCUGAUAAGCUA; listed as RNA, further chemistry not given here)
- IFN-β production compared to ICR2 and ICR2AS conjugated with seed mutant anti-miR-21 [1]: increased induction

Molecule: Cc1ccccc1N=Nc1ccc(NC(=O)c2ccnn2C)c(C)c1 [CH223191]
- IFN-β production, cells pre-treated with mixture of 1-MT and CH223191 versus DMSO (Mouse macrophage cells): significantly increased
- IFN-β production, cells pre-treated with mixture of 1-MT and CH223191 versus DMSO [7]: significantly increased
- IFN-β production, cells pre-treated with mixture of 1-MT and CH223191 versus DMSO [8]: significantly increased

B1: mutant RigantmiR-21: composed of ICR4 and a non-complementary sequence to miR-21; SEQ ID NO: 3 (nucleic acid)
chain: GGAUGCGGUACCUGACAGCAUCUUGAAAUAAGGACUGAUGCUCAACAUCAGUCUGACACUCCA
modifications: chemistry not fully specified
- cytotoxic effects after repeated treatments [3]: gradually augmented
- IFN-β production after first and second transfection ([6]; ELISA): significantly reduced

B2: high mobility group box 1 (protein, UniProt P09429 1-215, looked up)
High mobility group protein B1: MGKGDPKKPRGKMSSYAFFVQTCREEHKKKHPDASVNFSEFSKKCSERWKTMSAKEKGKFEDMAKADKARYEREMKTYIPPKGETKKKFKDPNAPKRPPSAFFLFCSEYRPKIKGEHPGLSIGDVAKKLGEMWNNTAADDKQPYEKKAAKLKEKYEKDIAAYRAKGKPDAAKKGVVKAEKSKKKKEEEEDEEDEEDEEEEEDEEDEDEEEDDDDE
notes: TLR4 agonist protein
- IFN-β production after secondary treatment, cells pretreated with the substance versus control (Mouse macrophage cells): significantly decreased
- IFN-β production after secondary treatment, cells pretreated with the substance versus control [7]: significantly decreased
- IFN-β production after secondary treatment, cells pretreated with the substance versus control [8]: significantly decreased

B3: RigantmiR-146a: nucleic acid molecule comprising a RIG-I agonist sequence and a miR-146a antagonist sequence; SEQ ID NO: 4 (nucleic acid)
chain: GGAUGCGGUACCUGACAGCAUCCUCCCCCGCAUUCCAUGGUCAACCCAUGGAAUUCAGUUCUCA
modifications: listed as RNA, chemistry not given here
- IFN-β production by different cancer cells [11]: differentially induce
